Test results reported in patent US20140315956A1, “SMALL MOLECULE INHIBITORS OF IL-6 AND USES THEREOF” (NATIONWIDE CHILDREN'S HOSPITAL, priority 2011, published 2014).
Entries after “also recorded” stand apart in the source; their conditions may differ.

How the values were obtained:
[1] = test system: Stat3 phosphorylation (p-Tyr705) induced by IL-6 in LNCaP prostate cancer cells; assay: IL-6 induced Stat3 phosphorylation in LNCaP cells, Western blot; assay type: cell-based; conditions: IL-6 12.5 ng/ml 30 min, Western blot
Description: LNCaP prostate cancer cells were acquired from American Type Culture Collection. Cells were maintained in RPMI 1640 medium, 1× with 4.5 g/L L-glutamine, supplemented with 10% FBS, 100 U/ml penicillin and […] streptomycin (Invitrogen), in a humidified atmosphere of 5% CO2 at 37° C.
LNCaP prostate cancer cells were seeded in T75 flasks, grown to 50% confluence and serum-starved the following night. The cells were left untreated or were treated with MDL-A (100-400 μM), 1, 2 (5-40 μM) or DMSO in the absence of FBS. After 4 hours, the cells were stimulated with 12.5 ng/ml IL-6 (Cell Signaling Technology). The cells were then harvested at 30 minutes and washed with PBS and lysed in cold M-PER lysis buffer (Pierce) containing protease inhibitors (Sigma) and phosphatase inhibitors (Roche). Lysates were centrifuged at 14,000 rpm for 15 minutes at 4° C. and supernatants were collected and stored at −20° C. until further use.
Cell lysates were assayed for their protein concentrations using the Bradford protein assay reagent (Pierce), using BSA (Fisher Scientific) as the standard. Lysate samples were adjusted for the same protein concentration, approximately 5 μg of sample protein was loaded into each of the appropriate lanes. Protein samples were separated by SDS-PAGE and electrotransferred to PVDF membranes. The membranes were washed and blocked with 5% BSA in TBST (60 mM Tris-base, 120 mM NaCl, 0.1% Tween-20) for at least one hour and incubated with anti-phospho-STAT3 (p-Tyr705) antibody, anti-STAT3 antibody or anti-GAPDH antibody (all from Cell Signaling Technology) in 5% BSA in TBST overnight at 4° C. Blots were then washed three times in TBST and incubated with a horseradish peroxidase-conjugated goat anti-rabbit IgG secondary antibody (Cell Signaling Technology) in 5% BSA in TBST for 1 hour at room temperature. The bound antibody was detected using Enhanced Chemiluminescence detection reagents (Pierce) according to the manufacturer's instructions and chemiluminescence visualized using ECL Hyperfilm (Amersham).

GP130 [2] = biological target: T1, GP130 (Homo sapiens, UniProt P40189); assay: Literature binding of madindoline A to GP130; conditions: compared with the docking free energy
T1 sequence (P40189 23-918): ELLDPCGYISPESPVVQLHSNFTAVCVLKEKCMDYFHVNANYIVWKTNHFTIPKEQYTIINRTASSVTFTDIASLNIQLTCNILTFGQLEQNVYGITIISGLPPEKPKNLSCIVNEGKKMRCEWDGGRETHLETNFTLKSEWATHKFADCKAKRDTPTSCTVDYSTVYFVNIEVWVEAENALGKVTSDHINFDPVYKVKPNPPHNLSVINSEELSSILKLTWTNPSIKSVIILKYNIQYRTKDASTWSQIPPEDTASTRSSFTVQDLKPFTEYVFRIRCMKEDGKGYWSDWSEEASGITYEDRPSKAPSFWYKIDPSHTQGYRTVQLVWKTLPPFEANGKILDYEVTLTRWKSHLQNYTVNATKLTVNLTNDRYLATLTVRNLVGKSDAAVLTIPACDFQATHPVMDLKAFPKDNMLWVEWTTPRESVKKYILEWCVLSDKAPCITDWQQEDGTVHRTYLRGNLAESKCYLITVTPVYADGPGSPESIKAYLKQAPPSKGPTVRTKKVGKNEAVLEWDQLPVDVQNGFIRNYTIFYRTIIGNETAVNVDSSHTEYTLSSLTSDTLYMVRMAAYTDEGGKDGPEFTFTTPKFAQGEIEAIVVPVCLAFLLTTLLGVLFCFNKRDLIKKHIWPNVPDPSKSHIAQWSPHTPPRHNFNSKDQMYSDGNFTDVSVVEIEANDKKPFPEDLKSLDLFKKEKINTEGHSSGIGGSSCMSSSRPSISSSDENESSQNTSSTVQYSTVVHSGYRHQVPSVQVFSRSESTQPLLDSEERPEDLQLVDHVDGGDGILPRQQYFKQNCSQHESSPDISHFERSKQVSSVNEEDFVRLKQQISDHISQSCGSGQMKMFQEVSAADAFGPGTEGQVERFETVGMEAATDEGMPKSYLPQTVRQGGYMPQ
Excerpt: Several synthetic approaches to the preparation of the natural product have been reported (ref. 22 and references therein), but due to the length and complexity of the syntheses cannot be applied economically in a pharmaceutical process. A structure-based approach to the synthesis of madindoline A analogues has not yet been reported.

GP130 [3] = biological target: T1, GP130; conditions: reported by Saleh et al.; read-out: GP130 binding affinity KD; cited from earlier work
[4] = test system: IL-6-dependent murine hepatoma cell line MH60; conditions: Omura and coworkers; cited from earlier work
[5] = test system: IL-6-independent MH60 cells; conditions: Omura and coworkers; cited from earlier work
[6] = test system: IL-6-dependent STAT3 tyrosine phosphorylation in HepG2 cells; conditions: Saleh and coworkers; cited from earlier work

**Q.** Which “inhibition of Stat3 phosphorylation induced by IL6” value [1] does the source give for `CCCCC1=C(C)C(=O)[C@@](C)(CN2c3ccccc3[C@]3(O)CCO[C@H]23)C1=O` [MDL-A, (+)-Madindoline A, reference compound] here?
**A.** inhibit Stat3 phosphorylation; also recorded: dose dependent inhibition

**Q.** And the “experimental binding free energy” value (GP130 [2])?
**A.** -5.0 kcal/mol

**Q.** And the Kd (GP130 [3])?
**A.** 288 µM

**Q.** And the “growth of IL-6-dependent MH60 cells” value [4]?
**A.** specifically inhibited the growth

**Q.** And the “growth of IL-6-independent MH60 cells” value [5]?
**A.** unaffected

**Q.** And the “IL-6-dependent STAT3 tyrosine phosphorylation” value [6]?
**A.** inhibits IL-6-dependent STAT3 tyrosine phosphorylation
